Reference: patent publication US10710986B2, “PD-1/PD-L1 inhibitors” (Gilead Sciences, Inc., priority 2018, dated 2020)
pIC50: −log10 of the molar value.

target: PD-1/PD-L1 (Homo sapiens (Human), UniProt Q9NZQ7); test: PD-1/PD-L1 biochemical protein-protein interaction assay (ALPHA); details: 0.3 nM His tagged PD-L1, 2.5 nM biotinylated Fc-PD-1, 60 minutes at 25° C., read-out: IC50 PD-L1-PD1
Sequence (Q9NZQ7 19-238): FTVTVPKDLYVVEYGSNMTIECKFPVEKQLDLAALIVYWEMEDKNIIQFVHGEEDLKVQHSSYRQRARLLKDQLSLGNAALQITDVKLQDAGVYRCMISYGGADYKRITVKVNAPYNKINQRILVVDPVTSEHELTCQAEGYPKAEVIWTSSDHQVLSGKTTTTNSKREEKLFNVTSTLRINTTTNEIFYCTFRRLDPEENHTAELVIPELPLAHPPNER

Row | Structure (SMILES) | pIC50
1 | COc1nc(-c2cccc(-c3cccc(-c4cnc(CN5C[C@H](O)C[C@H]5CO)c(OC)n4)c3Cl)c2Cl)cnc1CNC[C@@H]1CCC(=O)N1 [compound 423] | 9.63
2 | COc1nc(-c2cccc(-c3cccc(-c4cnc(CNC5(c6cccnc6)CC5)c(OC)n4)c3Cl)c2Cl)cnc1CNC[C@@H]1CCC(=O)N1 [compound 424] | 9.21
3 | COc1nc(-c2cccc(-c3cccc(-c4cnc(CNC[C@@H]5CCC(=O)N5)c(OC)n4)c3Cl)c2Cl)cnc1CNCc1cccnc1 [compound 425] | 9.38
4 | COc1nc(-c2cccc(-c3cccc(-c4cnc(CNCC5(O)CC5)c(OC)n4)c3Cl)c2Cl)cnc1CNC[C@@H]1CCC(=O)N1 [compound 426] | 9.56
5 | COc1nc(-c2cccc(-c3cccc(-c4cnc(CNC(CO)(CO)CO)c(OC)n4)c3Cl)c2Cl)cnc1CNC[C@@H]1CCC(=O)N1 [compound 428] | 9.57
6 | COc1nc(-c2cccc(-c3cccc(-c4cnc(CNCC5(C#N)CC5)c(OC)n4)c3Cl)c2Cl)cnc1CNC[C@@H]1CCC(=O)N1 [compound 429] | 9.46
7 | COc1nc(-c2cccc(-c3cccc(-c4cnc(CNC[C@@H]5CCC(=O)N5)c(OC)n4)c3Cl)c2Cl)cnc1CNCC1OCCO1 [compound 433] | 9.59
8 | COc1nc(-c2cccc(-c3cccc(-c4cnc(CN)c(OC)n4)c3Cl)c2Cl)ccc1CN [compound 436] | 8.26
9 | COc1nc(-c2cccc(-c3cccc(-c4cnc(CN5CC(OC)C5)c(OC)n4)c3Cl)c2Cl)ccc1CN1CC(OC)C1 [compound 438, 5-(2,2′-dichloro-3′-(6-methoxy-5-((3-methoxyazetidin-1-yl)methyl)pyridin-2-yl)-[1,1′-biphenyl]-3-yl)-3-methoxy-2-((3-methoxyazetidin-1-yl)methyl)pyrazine] | 8.87
10 | COc1nc(-c2cccc(-c3cccc(-c4cnc(CN5CC(O)C5)c(OC)n4)c3Cl)c2Cl)ccc1CN1CC(O)C1 [compound 439] | 9.19
11 | COc1nc(-c2cccc(-c3cccc(-c4cnc(CNC[C@@H]5CCC(=O)N5)cn4)c3Cl)c2Cl)ccc1CNC[C@@H]1CCC(=O)N1 [compound 440] | 8.73
12 | COc1nc(-c2cccc(-c3cccc(-c4cnc(CN5CCC(C)(CO)C5)c(OC)n4)c3Cl)c2Cl)cnc1CNC[C@@H]1CCC(=O)N1 (some centres unmarked) [compound 442] | 9.84
13 | COc1nc(-c2cccc(-c3cccc(-c4cnc(CN5CCC(C)(OC)C5)c(OC)n4)c3Cl)c2Cl)cnc1CNC[C@@H]1CCC(=O)N1 (some centres unmarked) [compound 443] | 9.61
14 | COc1nc(-c2cccc(-c3cccc(-c4cnc(CN5CC(C)(O)C5)c(OC)n4)c3Cl)c2Cl)cnc1CNC[C@H]1CCC(=O)N1 [compound 446] | 9.86
15 | COc1nc(-c2cccc(-c3cccc(-c4cnc(CN5CC(C)(O)C5)c(OC)n4)c3Cl)c2Cl)cnc1CNCCO [compound 449] | 9.55
16 | COc1nc(-c2cccc(-c3cccc(-c4cnc(CN5CCCC5(C)CO)c(OC)n4)c3Cl)c2Cl)cnc1CNC[C@@H]1CCC(=O)N1 (some centres unmarked) [compound 453] | 9.86
17 | COc1nc(-c2cccc(-c3cccc(-c4cnc(CNCc5cnn(CCO)c5)c(OC)n4)c3Cl)c2Cl)cnc1CNCc1cnn(CCO)c1 [compound 455] | 9.84
18 | COc1nc(-c2cccc(-c3cccc(-c4cnc(CNCc5cn[nH]c5)c(OC)n4)c3Cl)c2Cl)cnc1CNCc1cn[nH]c1 [compound 456] | 9.73
19 | COc1nc(-c2cccc(-c3cccc(-c4cnc(CN5CCC([C@H](C)O)CC5)c(OC)n4)c3Cl)c2Cl)cnc1CNC[C@@H]1CCC(=O)N1 [compound 457] | 9.76
20 | COc1nc(-c2cccc(-c3cccc(-c4cnc(CN(C)C[C@H]5C[C@H](O)C5)c(OC)n4)c3Cl)c2Cl)cnc1CNC[C@@H]1CCC(=O)N1 [compound 459] | 9.46
21 | COCC1(CO)CCN(Cc2ncc(-c3cccc(-c4cccc(-c5cnc(CN6CCC(CO)(COC)C6)c(OC)n5)c4Cl)c3Cl)nc2OC)C1 (centres unmarked) [compound 460] | 9.80
22 | COc1nc(-c2cccc(-c3cccc(-c4cnc(CNC[C@@H]5CCC(=O)N5)c(OC)n4)c3Cl)c2Cl)cnc1CNCCc1nnc[nH]1 [compound 461] | 9.80
23 | COc1nc(-c2cccc(-c3cccc(-c4cnc(CN5CCC(c6nnc[nH]6)C5)c(OC)n4)c3Cl)c2Cl)cnc1CNC[C@@H]1CCC(=O)N1 (some centres unmarked) [compound 462] | 9.46
24 | COc1nc(-c2cccc(-c3cccc(-c4cnc(CN[C@H]5C[C@H](C(N)=O)C5)c(OC)n4)c3Cl)c2Cl)cnc1CNC[C@@H]1CCC(=O)N1 [compound 465] | 9.80
25 | COc1nc(-c2cccc(-c3cccc(-c4cnc(CNCC5CCN(C(N)=O)C5)c(OC)n4)c3Cl)c2Cl)cnc1CNCC1CCN(C(N)=O)C1 (centres unmarked) [compound 467] | 9.84
26 | COc1nc(-c2cccc(-c3cccc(-c4cnc(CN[C@@H]5CCC5C)c(OC)n4)c3Cl)c2Cl)cnc1CNC[C@@H]1CCC(=O)N1 (some centres unmarked) [compound 469] | 9.59
27 | COc1nc(-c2cccc(-c3cccc(-c4cnc(CN5C6COCC5C6)c(OC)n4)c3Cl)c2Cl)cnc1CN1C2COCC1C2 [compound 474] | 9.66
28 | COc1nc(-c2cccc(-c3cccc(-c4cnc(CNC[C@H]5CNC(=O)C5)c(OC)n4)c3Cl)c2Cl)cnc1CNC[C@H]1CNC(=O)C1 [compound 475] | 9.79
29 | COc1nc(-c2cccc(-c3cccc(-c4cnc(CNC[C@H]5CCC[C@@H]5O)c(OC)n4)c3Cl)c2Cl)cnc1CNC[C@H]1CCC[C@@H]1O [compound 476] | 9.21
30 | COc1nc(-c2cccc(-c3cccc(-c4cnc(CN5CC6CC5(CO)C6)c(OC)n4)c3Cl)c2Cl)cnc1CN1CC2CC1(CO)C2 [compound 477] | 9.61

More lines, now with the values ahead:

Row | pIC50 | Structure (SMILES)
31 | 9.87 | COc1nc(-c2cccc(-c3cccc(-c4cnc(CN5CC[C@@H](OC)C5)c(OC)n4)c3Cl)c2Cl)cnc1CNC[C@@H]1CCC(=O)N1 [compound 427]
32 | 10.15 | COc1nc(-c2cccc(-c3cccc(-c4cnc(CN5CC[C@H](OC)C5)c(OC)n4)c3Cl)c2Cl)cnc1CNC[C@@H]1CCC(=O)N1 [compound 430]
33 | 9.91 | COc1nc(-c2cccc(-c3cccc(-c4cnc(CN5CC[C@H](O)C5)c(OC)n4)c3Cl)c2Cl)cnc1CNC[C@@H]1CCC(=O)N1 [compound 431]
34 | 10.08 | COc1nc(-c2cccc(-c3cccc(-c4cnc(CN[C@H]5C[C@](O)(CF)C5)c(OC)n4)c3Cl)c2Cl)cnc1CNC[C@@H]1CCC(=O)N1 [compound 432]
35 | 10.19 | COc1nc(-c2cccc(-c3cccc(-c4cnc(CNCC[C@@H]5CCC(=O)N5)c(OC)n4)c3Cl)c2Cl)cnc1CNCC[C@@H]1CCC(=O)N1 [compound 434]
36 | 10.19 | COc1nc(-c2cccc(-c3cccc(-c4cnc(CNC[C@@H]5CCC(=O)N5)c(OC)n4)c3Cl)c2Cl)cnc1CNC[C@@H]1CNC(=O)C1 [compound 435]
37 | 10.07 | COc1nc(-c2cccc(-c3cccc(-c4cnc(CN5CC6(CNC(=O)C6)C5)c(OC)n4)c3Cl)c2Cl)ccc1CN1CC2(CNC(=O)C2)C1 [compound 437]
38 | 10.19 | COc1nc(-c2cccc(-c3cccc(-c4cnc(CN5CCC(c6cn[nH]c6)C5)c(OC)n4)c3Cl)c2Cl)cnc1CNC[C@@H]1CCC(=O)N1 (some centres unmarked) [compound 441]
39 | 10.13 | COc1nc(-c2cccc(-c3cccc(-c4cnc(CN5CC6(CNC(=O)C6)C5)c(OC)n4)c3Cl)c2Cl)cnc1CN1CC(C)(O)C1 [compound 444]
40 | 10.16 | COc1nc(-c2cccc(-c3cccc(-c4cnc(CN5CC6(CCC(=O)N6)C5)c(OC)n4)c3Cl)c2Cl)cnc1CN1CC(C)(O)C1 [compound 445]
41 | 10.19 | COc1nc(-c2cccc(-c3cccc(-c4cnc(CN5CC6(C5)CN(C(C)=O)C6)c(OC)n4)c3Cl)c2Cl)cnc1CN1CC(C)(O)C1 [compound 447]
42 | 10.19 | COc1nc(-c2cccc(-c3cccc(-c4cnc(CN5CC(C)(O)C5)c(OC)n4)c3Cl)c2Cl)cnc1CN1CC[C@@H](CO)C1 [compound 448]
43 | 10.19 | COc1nc(-c2cccc(-c3cccc(-c4cnc5c(CN6CC7(CCC(=O)N7)C6)cn(C)c5c4)c3Cl)c2Cl)cnc1CN1CC2(CCC(=O)N2)C1 [compound 450]
44 | 10.00 | COc1nc(-c2cccc(-c3cccc(-c4cnc5c(CN6CC7(C6)CN(C(C)=O)C7)cn(C)c5c4)c3Cl)c2Cl)cnc1CN1CC2(C1)CN(C(C)=O)C2 [compound 451]
45 | 10.07 | CCC(=O)NC1CCN(Cc2ncc(-c3cccc(-c4cccc(-c5cnc(CNC[C@@H]6CCC(=O)N6)c(OC)n5)c4Cl)c3Cl)nc2OC)C1 (some centres unmarked) [compound 452]
46 | 10.19 | COc1nc(-c2cccc(-c3cccc(-c4cnc(CNCCOC(N)=O)c(OC)n4)c3Cl)c2Cl)cnc1CNCCOC(N)=O [compound 454]
47 | 10.06 | COc1nc(-c2cccc(-c3cccc(-c4cnc(CN[C@H]5CC[C@@H](C#N)C5)c(OC)n4)c3Cl)c2Cl)cnc1CNC[C@@H]1CCC(=O)N1 [compound 458]
48 | 10.12 | COCC1(CO)CCN(Cc2ncc(-c3cccc(-c4cccc(-c5cnc(CNC[C@@H]6CCC(=O)N6)c(OC)n5)c4Cl)c3Cl)nc2OC)C1 (some centres unmarked) [compound 463]
49 | 9.96 | COc1nc(-c2cccc(-c3cccc(-c4cnc(CN[C@H]5C[C@@H](C(N)=O)C5)c(OC)n4)c3Cl)c2Cl)cnc1CNC[C@@H]1CCC(=O)N1 [compound 464]
50 | 10.14 | COc1nc(-c2cccc(-c3cccc(-c4cnc(CNC5CCN(C(N)=O)CC5)c(OC)n4)c3Cl)c2Cl)cnc1CNC1CCN(C(N)=O)CC1 [compound 466]
51 | 9.91 | CNC(=O)C1CCN(Cc2ncc(-c3cccc(-c4cccc(-c5cnc(CC6CCN(C(=O)NC)C6)c(OC)n5)c4Cl)c3Cl)nc2OC)C1 (centres unmarked) [compound 468]
52 | 10.03 | COc1nc(-c2cccc(-c3cccc(-c4cnc(CNC5CCN(C(N)=O)CC5)c(OC)n4)c3Cl)c2Cl)cnc1CNC[C@@H]1CCC(=O)N1 [compound 470]
53 | 9.92 | COc1nc(-c2cccc(-c3cccc(-c4cnc(CNC[C@@H]5CCC(=O)N5)c(OC)n4)c3Cl)c2Cl)cnc1CNCC1CCN(C(N)=O)C1 (some centres unmarked) [compound 471]
54 | 10.18 | CNC(=O)C1CCN(Cc2ncc(-c3cccc(-c4cccc(-c5cnc(CNC[C@@H]6CCC(=O)N6)c(OC)n5)c4Cl)c3Cl)nc2OC)C1 (some centres unmarked) [compound 472]
55 | 10.03 | COc1nc(-c2cccc(-c3cccc(-c4cnc(CN[C@@H]5CCC(C(N)=O)C5)c(OC)n4)c3Cl)c2Cl)cnc1CNC[C@@H]1CCC(=O)N1 (some centres unmarked) [compound 473]
56 | 10.19 | COc1nc(-c2cccc(-c3cccc(-c4cnc(CN5CC(C(C)(C)O)C5)c(OC)n4)c3Cl)c2Cl)cnc1CN1CC(C(C)(C)O)C1 [compound 478]
